Each compound was assayed against T1, HPK1 (Homo sapiens, UniProt Q92918) (assay: HPK1 Kinase Binding Assay). Settings: LanthaScreen tracer 222, one hour incubation at 25 °C.
T1 construct: purchased SignalChem M23-11G
T1 sequence (Q92918 1-346 limits assumed): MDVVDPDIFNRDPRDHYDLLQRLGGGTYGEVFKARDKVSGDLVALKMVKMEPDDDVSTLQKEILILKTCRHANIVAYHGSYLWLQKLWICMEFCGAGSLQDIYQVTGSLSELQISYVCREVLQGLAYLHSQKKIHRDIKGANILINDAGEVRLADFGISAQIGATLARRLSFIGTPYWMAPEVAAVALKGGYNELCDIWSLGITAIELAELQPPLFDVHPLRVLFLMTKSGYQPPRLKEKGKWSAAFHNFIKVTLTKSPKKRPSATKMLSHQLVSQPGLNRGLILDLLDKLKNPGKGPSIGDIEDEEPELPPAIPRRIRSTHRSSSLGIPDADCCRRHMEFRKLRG
Protocol: A stock solution of 1 mM test compound was prepared in DMSO. The compound plate was prepared by 3-fold and 11-point serial dilutions. 0.1 µL of the compound in DMSO was transferred from the compound plate to the white 384 well polystyrene plates. The assay buffer contained 50 mM HEPES, pH 7.5, 0.01% Tween-20, 5 mM MgCl2, 0.01% BSA, and 5 mM DTT. 5 µL of 4 nM active HPK1 (SignalChem M23-11G) prepared in the buffer was added to the plate. The enzyme concentration given was based on the given stock concentration reported by the vender. […] After one hour incubation at 25 °C, the plates were read on a PHERAstar FS plate reader (BMG Labtech). Ki values were determined.

Ki, 100 to 500 nM:
COc1cccc(F)c1-c1nccc(C(=O)Nc2ccccc2C2CCNCC2)n1 [Example 78, 2-(2-Fluoro-6-methoxyphenyl)-N-(2-(piperidin-4-yl)phenyl)pyrimidine-4-carboxamide]

Ki, < 100 nM:
COc1cc(C)cc(F)c1-c1nccc(C(=O)Nc2ccc(-c3cnccc3C#N)cc2N2C[C@@H](N)C[C@H]2CO)n1 [Example 70, N-(2-((2S,4S)-4-Amino-2-(hydroxymethyl)pyrrolidin-1-yl)-4-(4-cyanopyridin-3-yl)phenyl)-2-(2-fluoro-6-methoxy-4-methylphenyl)pyrimidine-4-carboxamide]
Cc1c(F)ccc(F)c1-c1nccc(C(=O)Nc2ccc(-c3cnccc3C#N)cc2N2C[C@@H](N)C[C@H]2CO)n1 [Example 71, N-(2-((2S,4S)-4-Amino-2-(hydroxymethyl)pyrrolidin-1-yl)-4-(4-cyanopyridin-3-yl)phenyl)-2-(3,6-difluoro-2-methylphenyl)pyrimidine-4-carboxamide]
COc1ccc(F)c(F)c1-c1nccc(C(=O)Nc2ccc(-c3cnccc3C#N)cc2N2C[C@@H](N)C[C@H]2CO)n1 [Example 72, N-(2-((2S,4S)-4-Amino-2-(hydroxymethyl)pyrrolidin-1-yl)-4-(4-cyanopyridin-3-yl)phenyl)-2-(2,3-difluoro-6-methoxyphenyl)pyrimidine-4-carboxamide]
COc1c(F)ccc(F)c1-c1nccc(C(=O)Nc2ccc(-c3cnccc3C#N)cc2N2C[C@@H](N)C[C@H]2CO)n1 [Example 73, N-(2-((2S,4S)-4-Amino-2-(hydroxymethyl)pyrrolidin-1-yl)-4-(4-cyanopyridin-3-yl)phenyl)-2-(3,6-difluoro-2-methoxyphenyl)pyrimidine-4-carboxamide]
[2H]C([2H])([2H])Oc1ccc(C#N)c(F)c1-c1nccc(C(=O)Nc2ccc(-c3cnccc3C#N)cc2N2C[C@@H](N)C[C@H]2CO)n1 [Example 74, N-(2-((2S,4S)-4-Amino-2-(hydroxymethyl)pyrrolidin-1-yl)-4-(4-cyanopyridin-3-yl)phenyl)-2-(3-cyano-2-fluoro-6-(methoxy-d3)phenyl)pyrimidine-4-carboxamide]
[2H]C([2H])([2H])Oc1c(F)ccc(F)c1-c1nccc(C(=O)Nc2ccc(-c3cnccc3C#N)cc2N2C[C@@H](N)C[C@H]2CO)n1 [Example 75, N-(2-((2S,4S)-4-Amino-2-(hydroxymethyl)pyrrolidin-1-yl)-4-(4-cyanopyridin-3-yl)phenyl)-2-(3,6-difluoro-2-(methoxy-d3)phenyl)pyrimidine-4-carboxamide]
[2H]C([2H])([2H])Oc1ccc(F)c(F)c1-c1nccc(C(=O)Nc2ccc(-c3cnccc3C#N)cc2N2C[C@@H](N)C[C@H]2CO)n1 [Example 76, N-(2-((2S,4S)-4-Amino-2-(hydroxymethyl)pyrrolidin-1-yl)-4-(4-cyanopyridin-3-yl)phenyl)-2-(2,3-difluoro-6-(methoxy-d3)phenyl)pyrimidine-4-carboxamide]
COc1cccc(F)c1-c1nccc(C(=O)Nc2ccccc2C2CCCC(N)C2)n1 (centres unmarked) [Example 80, N-(2-(3-Aminocyclohexyl)phenyl)-2-(2-fluoro-6-methoxyphenyl)pyrimidine-4-carboxamide]
COc1cccc(F)c1-c1nccc(C(=O)Nc2ccccc2C2CCC(N)C2)n1 (centres unmarked) [Example 81, N-(2-(3-aminocyclopentyl)phenyl)-2-(2-fluoro-6-methoxyphenyl)pyrimidine-4-carboxamide]
COc1cccc(F)c1-c1nccc(C(=O)Nc2ccc(-c3c(C)nn(C)c3C)cc2[C@H]2CC[C@@H](N)CC2)n1 [Example 84, N-(2-((cis)-4-Aminocyclohexyl)-4-(1,3,5-trimethyl-1H-pyrazol-4-yl)phenyl)-2-(2-fluoro-6-methoxyphenyl)pyrimidine-4-carboxamide]
COc1cccc(F)c1-c1nccc(C(=O)Nc2ccc(S(C)(=O)=O)cc2N2C[C@@H](N)C[C@H]2CO)n1 [Example 85, N-(2-((2S,4S)-4-Amino-2-(hydroxymethyl)pyrrolidin-1-yl)-4-(methylsulfonyl)phenyl)-2-(2-fluoro-6-methoxyphenyl)pyrimidine-4-carboxamide]
COc1cccc(F)c1-c1nccc(C(=O)Nc2ccccc2N2C[C@@H](N)C[C@H]2CO)n1 [Example 86, N-(2-((2S,4S)-4-Amino-2-(hydroxymethyl)pyrrolidin-1-yl)phenyl)-2-(2-fluoro-6-methoxyphenyl)pyrimidine-4-carboxamide]
COc1cccc(F)c1-c1nccc(C(=O)Nc2cc(C)ccc2N2C[C@@H](N)C[C@H]2CO)n1 [Example 87, N-(2-((2S,4S)-4-Amino-2-(hydroxymethyl)pyrrolidin-1-yl)-5-methylphenyl)-2-(2-fluoro-6-methoxyphenyl)pyrimidine-4-carboxamide]
COc1cccc(F)c1-c1nccc(C(=O)Nc2cc(F)ccc2N2C[C@@H](N(C)C)C[C@H]2CO)n1 [Example 88, N-(2-((2S,4S)-4-(Dimethylamino)-2-(hydroxymethyl)pyrrolidin-1-yl)-5-fluorophenyl)-2-(2-fluoro-6-methoxyphenyl)pyrimidine-4-carboxamide]
COc1cccc(F)c1-c1nccc(C(=O)Nc2cc(F)ccc2N2C[C@@H](NC(C)C)C[C@H]2CO)n1 [Example 89, N-(5-Fluoro-2-((2S,4S)-2-(hydroxymethyl)-4-(isopropylamino)pyrrolidin-1-yl)phenyl)-2-(2-fluoro-6-methoxyphenyl)pyrimidine-4-carboxamide]
COc1cccc(F)c1-c1nccc(C(=O)Nc2ccc(C3CCOCC3)cc2N2C[C@@H](N)C[C@H]2CO)n1 [Example 90, N-(2-((2S,4S)-4-Amino-2-(hydroxymethyl)pyrrolidin-1-yl)-4-(tetrahydro-2H-pyran-4-yl)phenyl)-2-(2-fluoro-6-methoxyphenyl)pyrimidine-4-carboxamide]
COc1cccc(F)c1-c1nccc(C(=O)Nc2ccc(Cl)cc2N2C[C@@H](N)C[C@H]2CO)n1 [Example 91, N-(2-((2S,4S)-4-Amino-2-(hydroxymethyl)pyrrolidin-1-yl)-4-chlorophenyl)-2-(2-fluoro-6-methoxyphenyl)pyrimidine-4-carboxamide]
COc1cccc(F)c1-c1nccc(C(=O)Nc2ccc(F)cc2N2C[C@@H](N)C[C@H]2CO)n1 [Example 92, N-(2-((2S,4S)-4-Amino-2-(hydroxymethyl)pyrrolidin-1-yl)-4-fluorophenyl)-2-(2-fluoro-6-methoxyphenyl)pyrimidine-4-carboxamide]
N#Cc1cnc(N2CCCC2)cc1-c1ccc(NC(=O)c2ccnc(-c3c(F)cccc3F)n2)c(N2C[C@@H](N)C[C@H]2CO)c1 [Example 93, N-(2-((2S,4S)-4-Amino-2-(hydroxymethyl)pyrrolidin-1-yl)-4-(5-cyano-2-(pyrrolidin-1-yl)pyridin-4-yl)phenyl)-2-(2,6-difluorophenyl)pyrimidine-4-carboxamide]
N#CC1(c2ccc(NC(=O)c3ccnc(-c4c(F)cccc4F)n3)c(N3C[C@@H](N)C[C@H]3CO)c2)CC1 [Example 94, N-(2-((2S,4S)-4-Amino-2-(hydroxymethyl)pyrrolidin-1-yl)-4-(1-cyanocyclopropyl)phenyl)-2-(2,6-difluorophenyl)pyrimidine-4-carboxamide]
N#Cc1ccncc1-c1ccc(NC(=O)c2ccnc(-c3c(F)cccc3OC(F)F)n2)c(N2C[C@@H](N)C[C@H]2CO)c1 [Example 95, N-(2-((2S,4S)-4-Amino-2-(hydroxymethyl)pyrrolidin-1-yl)-4-(4-cyanopyridin-3-yl)phenyl)-2-(2-(difluoromethoxy)-6-fluorophenyl)pyrimidine-4-carboxamide]
N#Cc1ccncc1-c1ccc(NC(=O)c2ccnc(-c3c(F)cccc3C3CC3)n2)c(N2C[C@@H](N)C[C@H]2CO)c1 [Example 97, N-(2-((2S,4S)-4-Amino-2-(hydroxymethyl)pyrrolidin-1-yl)-4-(4-cyanopyridin-3-yl)phenyl)-2-(2-cyclopropyl-6-fluorophenyl)pyrimidine-4-carboxamide]
CCOc1cccc(F)c1-c1nccc(C(=O)Nc2ccc(-c3cnccc3C#N)cc2N2C[C@@H](N)C[C@H]2CO)n1 [Example 98, N-(2-((2S,4S)-4-Amino-2-(hydroxymethyl)pyrrolidin-1-yl)-4-(4-cyanopyridin-3-yl)phenyl)-2-(2-ethoxy-6-fluorophenyl)pyrimidine-4-carboxamide]
COc1cccc(F)c1-c1nccc(C(=O)Nc2ccc(-c3cnccc3C#N)cc2N2C[C@]3(CO)C[C@H]2CN3C)n1 [Example 99, N-(4-(4-Cyanopyridin-3-yl)-2-((1S,4S)-4-(hydroxymethyl)-5-methyl-2,5-diazabicyclo [2.2.1]heptan-2-yl)phenyl)-2-(2-fluoro-6-methoxyphenyl)pyrimidine-4-carboxamide]
COc1cccc(F)c1-c1nccc(C(=O)Nc2ccc(-c3cnccc3C#N)cc2N2CCO[C@H](CO)C2)n1 [Example 100, (S)-N-(4-(4-Cyanopyridin-3-yl)-2-(2-(hydroxymethyl)morpholino)phenyl)-2-(2-fluoro-6-methoxyphenyl)pyrimidine-4-carboxamide]
